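Grown in 96-well plates, cells were treated for 48 hours with each compound at five concentrations. Insufficient inhibition: endpoint recorded as highest concentration tested. TGI is the concentration that stops growth completely.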 Some results are limits rather than exact numbers.

Test systems include A498 renal; BT-549 breast; DU-145 prostate; KM12 colon; M14 melanoma; OVCAR-3 ovarian; OVCAR-8 ovarian; RPMI-8226 leukemia; SF-295 CNS; SNB-75 CNS.
Assay in all cases: NCI-60 cell line screen, 48 h

As for `CC(C)(C)c1cc(C(C)(C)C)c2sc(=O)oc2c1O`, the TGI worked out at 27.3 µM in the experiment on A498 renal; 32.9 µM in the experiment with BT-549 breast; 32.8 µM in the experiment with DU-145 prostate; 27.9 µM with KM12 colon; 31.6 µM in the experiment with M14 melanoma; 25.9 µM in the experiment on OVCAR-3 ovarian. The TGI is 31.2 µM with OVCAR-8 ovarian, above 100 µM in the experiment with RPMI-8226 leukemia, 23.9 µM in the experiment with SF-295 CNS and 27.1 µM in the experiment on SNB-75 CNS.
Regarding `CCOC(=O)CC1C(C(=O)OCC)=Cn2c([nH]c3cccc4cccc2c43)=C1C(=O)OCC` (stereo not given), the TGI with A498 renal, in the experiment with BT-549 breast, in the experiment on DU-145 prostate, in the experiment on KM12 colon, in the experiment on M14 melanoma and in the experiment with OVCAR-3 ovarian was above 100 µM each time. Also, the TGI in the experiment with OVCAR-8 ovarian, with RPMI-8226 leukemia, in the experiment with SF-295 CNS and in the experiment on SNB-75 CNS was above 100 µM in each case.
On to `c1ccc(CN2CCC(CNc3ncnc4ccccc34)C2)cc1` (stereo not given), for which the TGI is above 100 µM in the experiment on A498 renal; above 100 µM with BT-549 breast; above 100 µM with DU-145 prostate; above 100 µM in the experiment on KM12 colon; 35.4 µM in the experiment with M14 melanoma; above 100 µM in the experiment on OVCAR-3 ovarian. The TGI with OVCAR-8 ovarian was above 100 µM; in the experiment with RPMI-8226 leukemia it was 38.7 µM; in the experiment on SF-295 CNS it was above 100 µM; with SNB-75 CNS it was above 100 µM.
For the compound `CCOC(=O)/C=C(/OCC)[C@@H]1C(C(=O)c2ccc(Cl)cc2)[C@@H]1/C(=C\C(=O)OCC)OCC` (stereo not given in full), the TGI with A498 renal is above 100 µM; with BT-549 breast it was above 100 µM; in the experiment on DU-145 prostate, above 100 µM; in the experiment with KM12 colon it was above 51.3 µM; in the experiment on M14 melanoma it was above 100 µM; in the experiment on OVCAR-3 ovarian, above 100 µM. Also, the TGI in the experiment with OVCAR-8 ovarian was above 100 µM; in the experiment on RPMI-8226 leukemia it was above 23.1 µM; in the experiment with SF-295 CNS, above 88.9 µM; with SNB-75 CNS it was above 100 µM.
Consider `CCOC1OC(C)(C=C(C#N)C#N)CCC1C` (stereo not given), for which the TGI in the experiment on A498 renal is 51 µM; in the experiment with BT-549 breast it was above 70.3 µM; with DU-145 prostate, above 100 µM; in the experiment on KM12 colon, above 100 µM; in the experiment on M14 melanoma, above 100 µM; with OVCAR-3 ovarian, above 71.6 µM. The TGI with OVCAR-8 ovarian is above 68 µM; in the experiment on RPMI-8226 leukemia, 70.6 µM; in the experiment with SF-295 CNS, above 100 µM; with SNB-75 CNS, above 100 µM.
As for `Nc1c(-c2ccccc2)c2ccc([N+](=O)[O-])cc2c(=O)n1-c1cccc(C(=O)O)c1`, the TGI in the experiment on A498 renal, in the experiment on BT-549 breast, with DU-145 prostate, in the experiment on KM12 colon, with M14 melanoma and with OVCAR-3 ovarian was above 100 µM in each case. For the same compound, the TGI with OVCAR-8 ovarian, in the experiment on RPMI-8226 leukemia, in the experiment on SF-295 CNS and with SNB-75 CNS was above 100 µM each time.
Consider `Clc1ccc(-c2nn3c(COc4ccc(OCc5nnc6sc(-c7ccc(Cl)cc7)nn56)c(Cl)c4)nnc3s2)cc1`, for which the TGI in the experiment on A498 renal is 71.1 µM; in the experiment on BT-549 breast it was 52.7 µM; with DU-145 prostate, above 100 µM; with KM12 colon, above 100 µM; in the experiment with M14 melanoma, above 100 µM; with OVCAR-3 ovarian, above 100 µM. In addition, the TGI in the experiment on OVCAR-8 ovarian is 75 µM; in the experiment with RPMI-8226 leukemia it was above 100 µM; with SF-295 CNS, above 100 µM; in the experiment with SNB-75 CNS, 29.8 µM.
On to `CC(C)(C)OC(=O)N1CCC2(CC1)C(=O)NCN2c1ccccc1`, for which the TGI with A498 renal, with BT-549 breast, in the experiment on DU-145 prostate, in the experiment with KM12 colon, in the experiment on M14 melanoma and with OVCAR-3 ovarian was above 100 µM each time. The TGI with OVCAR-8 ovarian, in the experiment on RPMI-8226 leukemia, with SF-295 CNS and with SNB-75 CNS was above 100 µM in each case.
For the compound `CC1(c2ccc(Cl)cc2)c2ccccc2C(=O)N1CCCN1C(=O)c2ccccc2C1=O` (stereo not given), the TGI is above 100 µM with A498 renal; above 100 µM in the experiment on BT-549 breast; above 100 µM with DU-145 prostate; 50.8 µM in the experiment on KM12 colon; 99.7 µM with OVCAR-3 ovarian; above 100 µM in the experiment with OVCAR-8 ovarian. Besides, the TGI in the experiment on RPMI-8226 leukemia was above 100 µM; in the experiment with SF-295 CNS, 67 µM; in the experiment on SNB-75 CNS, above 100 µM.
Take `O=c1[nH]c(NCCCCCO)nc2nc[nH]c12`: the TGI in the experiment with A498 renal, in the experiment on BT-549 breast, with DU-145 prostate, with KM12 colon, in the experiment on M14 melanoma and with OVCAR-3 ovarian was above 100 µM throughout. The TGI with OVCAR-8 ovarian, with RPMI-8226 leukemia and in the experiment on SNB-75 CNS was above 100 µM each time.
As to `c1csc(-c2cc(-c3ccsc3)cs2)c1`, the TGI with A498 renal, in the experiment on BT-549 breast, in the experiment with DU-145 prostate, in the experiment on KM12 colon, in the experiment on M14 melanoma and in the experiment with OVCAR-3 ovarian was above 100 µM throughout. For the same compound, the TGI in the experiment on RPMI-8226 leukemia, with SF-295 CNS and with SNB-75 CNS was above 100 µM in each case.
Take `CCOC(=O)CC1(N)CC2c3ccccc3OC(=O)C2C(=O)N1` (stereo not given): the TGI in the experiment with A498 renal, with BT-549 breast, in the experiment with DU-145 prostate, with KM12 colon, in the experiment on M14 melanoma and in the experiment with OVCAR-3 ovarian was above 100 µM in each case. The TGI with OVCAR-8 ovarian, in the experiment with RPMI-8226 leukemia and in the experiment on SNB-75 CNS was above 100 µM throughout.
On to `CCCCCCCCCCCCCCCC[N+](C)(C)CCl`, for which the TGI in the experiment with A498 renal amounted to 32.2 µM; with BT-549 breast it was 7.87 µM; in the experiment on DU-145 prostate it was 17.2 µM; in the experiment with M14 melanoma, 6.38 µM; in the experiment with OVCAR-3 ovarian it was 14.6 µM; in the experiment on OVCAR-8 ovarian, 7.43 µM. Moreover, the TGI in the experiment on RPMI-8226 leukemia amounted to 5.16 µM; in the experiment with SF-295 CNS, 6.06 µM; with SNB-75 CNS, 5.18 µM.

For the origin of these results see PubChem BioAssay (NCI).
